Laboratory results: ChEMBL document CHEMBL1201862, “PubChem BioAssay data set” (2004)
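In this assay, cells in 96-well plates receive the compound at five concentrations for 48 hours. Endpoints are linearly interpolated between the surrounding concentrations. GI50 is the concentration that inhibits growth by half.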 Activity calls are given as the source filed them. Rule as the data show it: active = GI50 up to about 1.1 µM and inactive = higher.

Legend:
Assay in all cases: DTP human tumour cell line panel, 48 h
[1] = tested on: DLD-1
[2] = tested on: RXF 393
[3] = tested on: SK-OV-3
[4] = tested on: DMS-114
[5] = tested on: XF498
[6] = tested on: MCF7
[7] = tested on: NCI/ADR-RES
[8] = tested on: A498
[9] = tested on: SNB-75
[10] = tested on: NCI-H460
[11] = tested on: EKVX
[12] = tested on: SNB-78
[13] = tested on: UACC-62
[14] = tested on: SK-MEL-28
[15] = tested on: ACHN
[16] = tested on: TK-10
[17] = tested on: SR
[18] = tested on: LXFL 529
[19] = tested on: RXF 631
[20] = tested on: M14

Row | Structure (SMILES) | GI50 [1] | GI50 [2] | GI50 [3] | GI50 [4] | GI50 [5] | GI50 [6] | GI50 [7] | GI50 [8] | GI50 [9] | GI50 [10] | GI50 [11] | GI50 [12] | GI50 [13] | GI50 [14] | GI50 [15] | GI50 [16] | GI50 [17] | GI50 [18] | GI50 [19] | GI50 [20]
1 | O=C(O)CCC(NC(=O)c1ccc(Nc2nc3ccc(C(F)(F)F)cc3nc2-c2ccccc2)cc1)C(=O)O (stereo unspecified) | > 100 µM (inactive) | > 100 µM (inactive) | > 100 µM (inactive) | > 100 µM (inactive) | 98.4 µM (inactive) | > 100 µM (inactive) | > 100 µM (inactive) | > 100 µM (inactive) | > 100 µM (inactive) | > 100 µM (inactive) | > 100 µM (inactive) | > 100 µM (inactive) | > 100 µM (inactive) | > 100 µM (inactive) | – | – | – | – | – | –
2 | CCC12CCC[C@@]13C=C[C@H](O3)C(C)(C)C2=O (stereo partly specified) | > 100 µM (inactive) | > 100 µM (inactive) | > 100 µM (inactive) | > 100 µM (inactive) | – | – | – | – | > 100 µM (inactive) | > 100 µM (inactive) | > 100 µM (inactive) | > 100 µM (inactive) | > 100 µM (inactive) | – | > 100 µM (inactive) | > 100 µM (inactive) | > 100 µM (inactive) | > 100 µM (inactive) | > 100 µM (inactive) | > 100 µM (inactive)
3 | CCN1CC2(CO)CCC(OC)C34C5CC6C(OC)CC(O)(C5C6OC)C(O)(C(OC)C23)C14 (stereo unspecified) | 80.7 µM (inactive) | > 375 µM (inactive) | > 375 µM (inactive) | > 375 µM (inactive) | > 360 µM (inactive) | > 375 µM (inactive) | > 375 µM (inactive) | > 375 µM (inactive) | > 362 µM (inactive) | > 375 µM (inactive) | > 59.4 µM (inactive) | > 375 µM (inactive) | > 375 µM (inactive) | > 375 µM (inactive) | – | – | – | – | – | –
4 | S=C1NN=C2C(=C3CCCC4C5CCCCC5N2C34)N1 (stereo unspecified) | – | – | > 100 µM (inactive) | – | – | 44.5 µM (inactive) | > 100 µM (inactive) | – | – | – | – | – | – | > 100 µM (inactive) | > 100 µM (inactive) | > 100 µM (inactive) | 83.4 µM (inactive) | – | – | > 100 µM (inactive)
5 | Nc1nc(=O)n(C2OC(CO)C(O)C2O)cc1F (stereo unspecified) | > 100 µM (inactive) | 43.5 µM (inactive) | > 100 µM (inactive) | 0.0462 µM (active) | > 100 µM (inactive) | 3.99 µM (inactive) | 0.76 µM (active) | > 100 µM (inactive) | – | 0.102 µM (active) | – | – | 1.36 µM (inactive) | – | – | – | – | – | – | –
6 | CN(C)CCNCc1c2ccccc2c(CNCCN(C)C)c2ccccc12 | 29.4 µM (inactive) | 20.6 µM (inactive) | 16.9 µM (inactive) | 26 µM (inactive) | 58.2 µM (inactive) | 26 µM (inactive) | > 100 µM (inactive) | 27.1 µM (inactive) | 43.6 µM (inactive) | 27 µM (inactive) | 65.8 µM (inactive) | 41.8 µM (inactive) | 26.1 µM (inactive) | 63.8 µM (inactive) | – | – | – | – | – | –
7 | COc1ccc(C2C(C#N)=C(O)NC(O)=C2C#N)cc1OC | – | – | > 100 µM (inactive) | – | > 100 µM (inactive) | – | – | > 100 µM (inactive) | > 100 µM (inactive) | – | > 100 µM (inactive) | > 100 µM (inactive) | – | > 100 µM (inactive) | – | – | > 100 µM (inactive) | > 100 µM (inactive) | > 100 µM (inactive) | > 100 µM (inactive)
